Data as given in patent US20110311990A1, “TETRANOR-PGEM/PGAM SPECIFIC IMMUNOGENS, ANTIBODIES, TRACERS, ASSAY KITS AND METHODS FOR MAKING SAME” (Cayman Chemical Company, Incorporated, priority 2010, published 2011).

Assays:
[1] = humans; cited from earlier work
[2] = tested on: tetranor-PGEM EIA Antiserum; assay: Cross-reactivity testing of tetranor-PGEM antibody (polyclonal antiserum) by competitive EIA; format: binding, rabbit; conditions: for Cross-reactivity (% XR): Specificity of the tetranor-PGEM EIA Antiserum, Example 4 kit performance characteristics; for % XR: percent cross-reactivity = IC50 of tetranor-PGEM / IC50 of test compound x 100, Example 2, antiserum raised with tetranor-PGEM-KLH immunogen
Method: (§1) Rabbit immunizations were performed by Robert Sargeant Antibodies (655 Ash Street, Ramona, Calif. 92065) as follows: Male New Zealand White Rabbits 9-10 weeks of age, were immunized with Complete Freund's Adjuvant (CFA) initially, followed by Incomplete Freund's Adjuvant (IFA) for all subsequent injections. Immunogen 1 (200 μg; prepared in Step A, Procedure 1 of this Example; alternatively, Immunogen 1 A, which was prepared in Step A, Procedure 1A of this Example, has been used to produce antiserum according to this immunization method) was injected for the first immunization and 100 μg for boosts. The immunogen was diluted to one milliliter with sterile saline and combined with one milliliter of the appropriate adjuvant. The antigen and adjuvant were mixed thoroughly to form a stable emulsion which is injected subcutaneously. Blood was collected from the central ear artery and allowed to clot and retract. The serum was decanted and clarified by centrifugation before freezing.
(§2) Antisera (AS) from multiple bleeds from multiple rabbits were screened by titration on a 96-well microplate with detection of specific Ab based on its ability to bind the tetranor-PGEM-AChE conjugate (diluted 1:1000). The next screen consisted of a sensitivity screen selecting for AS with a suitable detection limit. The next screen excluded AS with unacceptably high cross-reactivity (experiment described below) with parent metabolites, tetranor-PGFM, and tetranor-PGDM. The final screen consisted of urinary measurements to confirm normal biological levels of tetranor-PGEM, and recovery experiments.
(§3) To determine cross-reactivity of an antibody, set up the standard curve using optimal tracer and Ab dilutions according the kit instructions. Tetranor-PGEM was diluted to 10 ng/ml for the first point in the standard curve and diluted 2.5-fold serially 7 times. First standard dilutions (10 μg/ml) of tetranor-PGDM, tetranor-PGJM, tetranor-PGAM, and tetranor-PGFM were prepared and 7 additional 6-fold serial dilutions were performed. IC50s of all compounds were determined and each percent cross-reactivity (% XR) values of the potentially cross-reactive compounds was determined by dividing the IC50 of tetranor-PGEM by the IC50 of the test compound and multiplying by 100. See the chart below for determined % XR values.

tetranor-PGAM antibody = assay: Cross-reactivity testing of tetranor-PGAM antibody (polyclonal antiserum) by competitive EIA; format: binding, rabbit; conditions: percent cross-reactivity = IC50 of tetranor-PGAM / IC50 of test compound x 100; Example 3, antiserum raised with tetranor-PGAM-KLH immunogen
Method: as §1, with “Immunogen 3” for “Immunogen 1”, “prepared according to” for “prepared in”, “Step A” for “Step A, Procedure 1”, “this Example)” for “this Example; alternatively, Immunogen 1 A, which was prepared in Step A, Procedure 1A of this Example, has been used to produce antiserum according to this immunization method)”
as §2, with “tetranor-PGAM-AChE” for “tetranor-PGEM-AChE”, “(Tracer 4, diluted” for “(diluted”, “tetranor-PGAM,” for “tetranor-PGEM,”, “experiments. Only one AS passed all screens.” for “experiments.”
as §3, with “Tetranor-PGAM” for “Tetranor-PGEM”, “tetranor-PGEM,” for “tetranor-PGJM, tetranor-PGAM,”, “tetranor-PGAM” for “tetranor-PGEM”

Structure (SMILES) | infused dose of PGE2 that appears as tetranor-PGEM in the urine [1] | Cross-reactivity (% XR) [2] | % XR [2] | % XR (tetranor-PGAM antibody)
CCCCC[C@H](O)/C=C/[C@H]1[C@H](O)CC(=O)[C@@H]1C/C=C\CCCC(=O)O [PGE2] | About 15% |  |  | 
O=C(O)CCCCC(=O)CC[C@H]1C=CC(=O)[C@@H]1CCC(=O)O [tetranor-PGAM] |  | 2,034% | 2,034% | 100%
O=C(O)CCCCC(=O)CC[C@H]1C(=O)C[C@H](O)[C@@H]1CCC(=O)O [tetranor-PGDM] |  | 1.5% | 1.5% | 5.3%
O=C(O)CCCCC(=O)CC[C@H]1[C@H](O)CC(=O)[C@@H]1CCC(=O)O [tetranor-PGEM, 11α-hydroxy-9,15-dioxo-13,14-dihydro-2,3,4,5-tetranor-prostan-1,20-dioic acid] |  | 100% | 100% | 25.1%
O=C(O)CCCCC(=O)CC[C@@H]1[C@@H](CCC(=O)O)[C@@H](O)C[C@H]1O [tetranor-PGFM] |  | 7.8% | 7.8% | 1.0%
O=C(O)CCCCC(=O)CC[C@H]1C(=O)C=C[C@@H]1CCC(=O)O [tetranor-PGJM] |  | 27.4% | 27.4% | 
